From patent publication US12565517B2, “Cyclic peptide having CTLA-4 inhibitory activity and use thereof” (GeneFrontier Corporation, priority 2019, dated 2026)
Bridges are numbered along the chain shown (N, C = ends). Where no end group is shown, it is not given here.

What was measured:
[1] = target: T1, CTLA-4-Fc (Recombinant Human CTLA4-Fc chimera) versus Human Fc (Homo sapiens, UniProt P16410); assay: Ribosome display pull down assay of enriched clones; assay type: binding; conditions: CTLA-4 Fc versus Human Fc
T1 construct: purchased R&D systems
Description: (§1) CTLA-4 protein (Recombinant Human CTLA4-Fc chimera: R&D systems) was biotinylated according to the standard protocol for EZ-Link NHS-PEO12-Biotin (PIERCE). Biotinylation of CTLA-4 protein was confirmed mobility shift of the band in SDS-PAGE. The concentration of biotinylated CTLA-4 protein was measured by using BCA Protein Assay Kit (PIERCE)
Dynabeads MyOne Streptavidin T1 magnetic beads (100 μL slurry, Invitrogen) pre-blocked overnight with 5% SuperBlock at 4° C. was trapped with MagneSphere Magnetic Separation Stand (Promega) and washed twice with 500 μL of wash buffer solution. 100 pmol of biotinylated antigen protein was added and immobilized on the magnetic beads at 4° C. After 60 min, the magnetic beads were trapped with MagneSphere Magnetic Separation Stand (Promega) and washed 3 times with 500 μL of wash buffer solution. The recovered magnetic beads were added with post-translation reaction solution containing ribosome display complexes (peptide-ribosome-mRNA complexes) and stirred with rotation at 4° C. for 1 hr. A supernatant was discarded by MagneSphere Magnetic Separation Stand (Promega), and the recover magnetic beads were added with 1 mL of wash buffer solution and stirred with rotation at 4° C. for 5 min. […] A part of purified mRNA was reacted with RNA-direct SYBR Green Realtime PCR Master Mix (TOYOBO) and quantified by using Light Cycler 480 (Roche).

[2] = target: T2, CTLA-4 protein (Recombinant Human CTLA4-Fc chimera) (Homo sapiens, UniProt P16410); assay: Affinity measurement of MBP fusion clone by BLItz system (biotinylated CTLA-4 on SA sensor chip); assay type: binding
T2 construct: purchased R&D systems
Description: as §1
E. coli transformants were inoculated into 200 mL of 2×YT medium containing ampicillin (final concentration 50 μg/mL), incubated at 37° C. for 3-5 hours (OD600=0.5-0.8), and then added with IPTG (final concentration 0.5 mM) and incubated at 25° C. overnight. The grown E. coli cells were collected by centrifugation, resuspended in 60 mL of lysis buffer (20 mM Tris HCl pH 7.5, 500 mM NaCl), and disrupted by a sonicator (Bioruptor UCD-250). The disrupted cell suspension was centrifuged, the supernatant was collected, filtered through a 0.22 μm filter, and subjected to affinity purification by MBPTrap (GE Healthcare). The purified protein solution was subjected to a buffer exchange into PBS by a dialysis membrane. Purity was confirmed by SDS-PAGE and protein concentration was determined using the BCA Protein Assay Kit (PIERCE).
The affinity of the purified CTLA-4 binding clone (H12SSI-Ctla4-3-02) to CTLA-4 was measured using BLItz system (forte Bio). All operations were performed according to the instruction manual of the BLItz system. The biotinylated CTLA-4 protein was immobilized on the SA sensor chip via streptavidin.

[3] = target: SA (Streptomyces avidinii, UniProt P22629); assay: ELISA background signal of MBP-fused cyclic peptides on SA wells (Table 5); assay type: binding; conditions: MBP-fused cyclic peptide
Description: (§2) After each round of Affinity Maturation, the cyclic peptide genes were recovered and subcloned into pET-Mal vector (FIG. 2) in the same manner as described above to perform base sequence analysis. For the 94 single colonies analyzed for sequence, E. coli transformants were inoculated into 100 μL of 2×YT medium containing ampicillin (final concentration 50 μg/mL), incubated at 37° C. for 3-5 hours (OD600=0.5-0.8), then added with IPTG (final concentration 0.5 mM) and incubated at 25° C. overnight. 10 μL of E. coli cultured medium was added with 90 μL of PBS and 40 μL of lysis reagent (20 μL BugBuster Protein Extraction Reagent (Novagen), 20 μL Lysozyme solution 2.5 mg/mL) to lyse E. coli cells for 1 hour at room temperature. The cell lysate was added with 40 μL of 12.5% skim milk solution (TBST) and blocked for 1 hour at room temperature. In parallel, antigen protein was immobilized overnight at 4° C. in 384-well plates at 100 ng/20 μL per well, and each well was washed twice with 100 μL/well of TBST, added with 100 μL/well of 5% skim milk solution (TBST) for blocking for 1 hour at room temperature, and washed twice with 100 μL/well of TBST to obtain antigen-immobilized plates. 20 μL/well of blocking-treated E. coli extract was added to the antigen-immobilized plates and gently stirred at room temperature using a plate mixer. After 1 hour, the plates were washed 5 times with 100 μL/well of TBST, 20 μL/well of anti-FLAG M2-HRP conjugate (1:2000 dilution, Sigma) was added and gently stirred on a plate mixer for 1 hour at room temperature. The plates were washed 5 times with 100 μL/well of TBST, and binding of cyclic peptides to the antigen was detected by 20 μL/well of chromogenic substrate (0.4 mg/mL 3,3′,5,5′-Tetramethyl-benzidine, 0.01% hydrogen peroxide). After 15 minutes of reaction at room temperature, the reaction was stopped with 20 μL/well of 2N HCl, and absorbance at 450 nm was measured using a plate reader (infinite F200: TECAN) (Table 5).
An Error-Prone Library was prepared based on H12SSI-Ctla4-3-02, and Affinity Maturation selection experiments were performed. […]

[4] = target: T3, CTLA-4 (Homo sapiens, UniProt P16410); assay: Evaluation of binding after Affinity Maturation selection by ELISA (S/N ratio, Table 5); conditions: for ELISA MBP-fusion Orencia (absorbance at 450 nm): MBP-fused cyclic peptide, Orencia wells; for ELISA MBP-fusion S/N(SA): ratio of Orencia signal to SA signal, binding = S/N not less than 2
T3 construct: IgG1 Fc (own knowledge: Orencia = abatacept, CTLA4-Ig)
Description: The basic operation of ribosome display was performed in the same manner as described above. Detailed experimental conditions for Affinity Maturation are indicated below. 2 μL of Nanolink streptavidin magnetic beads (SoluLink) were used as magnetic beads to immobilize the antigen, and 1 mL of CTLA-4 protein solution (1 μM) was used as a wash solution. The amount of biotinylated CTLA-4 immobilized on the magnetic beads was 10 pmol in the 1st round, 2 pmol in the 2nd round, and 1 pmol in the 3rd round, respectively. The washing period was 2 hours for the 1st round, 19 hours for the 2nd round, and 67 hours for the 3rd round. The number of wash cycle was one time (2 hours) in the 1st round, two times (about every 10 hours) in the […], and six times (about every 10 hours) in the 3rd round. After each round of RT-PCR, Error-Prone PCR was performed in the same manner as described above.
as §2
T3 sequence (P16410 with tags, fused parts or gaps limits assumed): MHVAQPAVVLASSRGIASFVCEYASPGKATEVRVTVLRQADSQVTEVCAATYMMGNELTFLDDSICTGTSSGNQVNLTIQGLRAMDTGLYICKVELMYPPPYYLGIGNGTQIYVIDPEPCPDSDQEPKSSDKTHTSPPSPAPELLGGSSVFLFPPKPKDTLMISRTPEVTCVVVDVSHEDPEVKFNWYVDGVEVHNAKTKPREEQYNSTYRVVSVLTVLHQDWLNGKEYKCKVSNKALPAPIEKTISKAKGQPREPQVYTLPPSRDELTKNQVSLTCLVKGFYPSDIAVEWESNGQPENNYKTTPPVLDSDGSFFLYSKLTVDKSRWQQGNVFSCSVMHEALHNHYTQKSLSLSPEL

[5] = target: T4, binding of CTLA-4 to CD80 (Homo sapiens, UniProt P16410); assay: CTLA4:B7-1[Biotinylated] Inhibitor Screening Assay Kit (IC50 measurement); assay type: biochemical
T4 construct: purchased BPS Biosciences
T4 sequence (P16410 37-162 limits assumed): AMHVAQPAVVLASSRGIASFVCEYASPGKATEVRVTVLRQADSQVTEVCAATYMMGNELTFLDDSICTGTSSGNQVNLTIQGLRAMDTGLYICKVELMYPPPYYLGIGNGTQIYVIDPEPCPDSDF
From the text: IC50 can be determined by using, for example, competitive ELISA, surface plasmon resonance (BIAcore (trademark)) analysis or the like. IC50 value for the cyclic peptide of the present invention with respect to its inhibition of binding between human CTLA-4 and human CD80 is preferably measured by CTLA4:B7-1 [Biotinylated] Inhibitor Screening Assay Kit (BPS Bioscience) according to the Example below.
Among the clones obtained in the Affinity Maturation selection experiment, clone #19 ([…]) (SEQ ID NO: 22), which has high affinity to CTLA-4 in EC50 measurement, was measured for its activity to inhibit binding of CTLA-4 to CD80. The measurement of inhibitory activity was performed using the CTLA4:B7-1[Biotinylated] Inhibitor Screening Assay Kit (BPS Biosciences). The experiment was performed according to the standard protocol attached to the kit.
In addition, peptides with glycine added to the N-terminus (Gly-clone #19: […] (SEQ ID NO: 26)/Gly-H12SSI-Ctla4-3-02: […] (SEQ ID NO: 25)) were chemically synthesized for the measurement of inhibitory activity. Inhibitory activity was measured using the CTLA4:B7-1 [Biotinylated] Inhibitor Screening Assay Kit (BPS Biosciences) as described above.

[6] = target: T5, CTLA-4 (Homo sapiens, UniProt P16410); assay: Affinity measurement of synthetic biotinylated peptides by BLItz system (peptide on SA sensor chip); assay type: binding; conditions: synthetic Biotin-PEG4-Lys peptide immobilized, BLItz
T5 sequence (P16410 36-223): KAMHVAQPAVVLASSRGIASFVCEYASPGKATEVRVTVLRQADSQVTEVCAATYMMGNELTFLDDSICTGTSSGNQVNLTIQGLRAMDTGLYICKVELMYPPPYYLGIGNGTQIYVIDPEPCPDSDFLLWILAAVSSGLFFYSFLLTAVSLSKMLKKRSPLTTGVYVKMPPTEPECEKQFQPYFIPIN
Description: Affinity for CTLA-4 was measured using the BLItz system (forte Bio). All operations were performed according to the instruction manual of the BLItz system. The biotinylated peptides were immobilized on the SA sensor chip via streptavidin.

[7] = target: T5, CTLA-4; assay: Affinity measurement of CTLA-4 binding clones after Affinity Maturation (EC50 by ELISA, Table 6)
Description: For each of the CTLA-4 binding clones obtained by Affinity Maturation, purified N-terminal MBP fusion protein solution (400 μg/mL) was prepared and samples serially 2-fold diluted with PBS were prepared. CTLA-4 was immobilized overnight at 4° C. in 384-well plates at 100 ng/20 μL per well, and each well was washed twice with 100 μL/well of TBST, added with 100 μL/well of 5% skim milk solution (TBST) for blocking for 1 hour at room temperature, and washed twice with 100 μL/well of TBST to obtain antigen-immobilized plates. 20 μL/well of serially-diluted N-terminal MBP fusion protein solution was added to the antigen-immobilized plates and gently stirred at room temperature using a plate mixer. After 1 hour, the plates were washed 5 times with 100 μL/well of TBST, 20 μL/well of anti-FLAG M2-HRP conjugate (1:2000 dilution, Sigma) was added and gently stirred on a plate mixer for 1 hour at room temperature. Further, the plates were washed 5 times with 100 μL/well of TBST, and binding of N-terminal MBP fusion proteins to the antigen was detected by 20 μL/well of chromogenic substrate (0.4 mg/mL 3,3′,5,5′-Tetramethyl-benzidine, 0.01% hydrogen peroxide). After 15 minutes of reaction at room temperature, the reaction was stopped with 20 μL/well of 2N HCl, and absorbance at 450 nm was measured using a plate reader (infinite F200: TECAN). The graph was plotted with the vertical axis as the absorbance of ELISA and the horizontal axis as the concentration of N-terminal MBP fusion protein of the CTLA4-binding clones (FIG. 5), and the EC50 was calculated from the obtained binding curve (Table 6).

[8] = target: T5, CTLA-4; assay: Alanine scanning of clone #10, binding evaluated by ELISA; conditions: mutants of clone #10
Description: After each round of Affinity Maturation, the cyclic peptide genes were recovered and subcloned into pET-Mal vector (FIG. 2) in the same manner as described above to perform base sequence analysis. For the 94 single colonies analyzed for sequence, E. coli transformants were inoculated into 100 μL of 2×YT medium containing ampicillin (final concentration 50 μg/mL), incubated at 37° C. for 3-5 hours (OD600=0.5-0.8), then added with IPTG (final concentration 0.5 mM) and incubated at 25° C. overnight. […] The plates were washed 5 times with 100 μL/well of TBST, and binding of cyclic peptides to the antigen was detected by 20 μL/well of chromogenic substrate (0.4 mg/mL 3,3′,5,5′-Tetramethyl-benzidine, 0.01% hydrogen peroxide). After 15 minutes of reaction at room temperature, the reaction was stopped with 20 μL/well of 2N HCl, and absorbance at 450 nm was measured using a plate reader (infinite F200: TECAN) (Table 5).
Using the CTLA-4 binding clone #10 ([…]) (SEQ ID NO: 27), which had high affinity, as the original clone, a series of oligo DNAs encoding mutants in which any one amino acid residue except cysteine was sequentially replaced with alanine were synthesized and each oligo DNA was subcloned into pET-Mal vector (FIG. 2), and the binding activity of the alanine substitution mutants to CTLA-4 was evaluated by ELISA as described above.

T2 sequence (P16410 with tags, fused parts or gaps limits assumed): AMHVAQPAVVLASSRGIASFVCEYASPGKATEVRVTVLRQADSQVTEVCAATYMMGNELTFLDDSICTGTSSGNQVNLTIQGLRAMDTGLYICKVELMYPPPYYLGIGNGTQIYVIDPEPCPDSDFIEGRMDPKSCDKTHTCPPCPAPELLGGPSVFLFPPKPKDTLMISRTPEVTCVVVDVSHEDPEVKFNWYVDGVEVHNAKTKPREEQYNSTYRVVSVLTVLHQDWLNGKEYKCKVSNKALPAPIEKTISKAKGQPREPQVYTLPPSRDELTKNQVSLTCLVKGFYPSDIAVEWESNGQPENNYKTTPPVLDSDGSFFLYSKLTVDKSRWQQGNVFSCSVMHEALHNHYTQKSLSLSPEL

Row | binding activity of alanine substitution mutant to CTLA-4 [8] | Substance | binding specificity in ribosome display pull down assay [1] | Kd [2] | ka [2] | kd [2] | ELISA MBP-fusion SA (absorbance at 450 nm) [3] | ELISA MBP-fusion Orencia (absorbance at 450 nm) [4] | ELISA MBP-fusion S/N(SA) [4] | IC50 ([5]; MBP fusion protein) | IC50 ([5]; synthesized peptide with N-terminal glycine) | ka [6] | kd [6] | Kd ([6]; unit inferred) | CTLA-4 affinity improved over the original clone ([7]; EC50 by ELISA, MBP fusion cyclic peptides) | EC50 ([7]; N-terminal MBP fusion protein of the CTLA-4 binding clone, EC50 calculated from ELISA binding curve)
1 | – | CMHPFLLVVSHHFC (disulfide 1-14 (inferred); not fully specified (N-terminus)) [H12SSI-Ctla4-3-02] | bound specifically to CTLA-4 | 3880 nM | 3180 M⁻¹ s⁻¹ | 0.0123 s⁻¹ | 0.0536 | 0.2278 | 4.3 | – | – | – | – | – | – | –
2 | – | CMHPFLPIVSHHFCER [#19] | – | – | – | – | 0.0591 | 1.0658 | 18.0 | 1360 nM | 11500 nM | 208000 M⁻¹ s⁻¹ | 0.0128 s⁻¹ | 61.8 nM | about 50 fold | 75 nM
3 | weak binding activity | I7A mutant: alanine substitution mutant of clone #10 with isoleucine at position 7 replaced (CLHPFLPAVSHHFCGR; not fully specified (bridges); cysteine pairing not given here; also: MBP fusion) | – | – | – | – | – | – | – | – | – | – | – | – | – | –
